Results reported in paper PMC9656702, “Unveiling a New Selenocyanate as a Multitarget Candidate with Anticancer, Antileishmanial and Antibacterial Potential” (Molecules, 2022).
Values after ≈ are worked out from the molar mass of the structure shown. Read-outs that look alike come from different tables or passages of the source.

Legend:
K. pneumoniae = assay: MIC and MBC assay, K. pneumoniae; type: cell-based, Klebsiella pneumoniae; settings: for MIC / MBC: Klebsiella pneumoniae; for MIC: read-out: MIC K. pneumoniae; for MBC: read-out: MBC K. pneumoniae
Procedure: (§1) The minimum inhibitory concentration (MIC) and the minimum bactericidal concentration (MBC) values of the selenocompounds were determined in a panel of six bacterial strains as a first approach to assess their antibacterial activity. Thus, the synthesized derivatives were tested against the Gram-negative bacteria Escherichia coli (E. coli), Klebsiella pneumoniae (K. pneumoniae) and Citrobacter freundii (C. freundii); and the Gram-positive bacteria Staphylococcus aureus (S. aureus), Streptococcus faecalis (S. faecalis), and Staphylococcus epidermidis (S. epidermidis). […]
(§2) All the selenocompounds were screened for their in vitro inhibitory activity against three Gram-negative (E. coli, K. pneumoniae and C. freundii) and three Gram-positive (S. aureus, S. faecalis and S. epidermidis) bacteria. Bacterial strains were kindly provided by the Department of Microbiology and Parasitology of the University of Navarra. The bacterial cells were grown in tryptic soy agar (TSA) plates and maintained at 4 °C.
(§3) The compounds were firstly dissolved in DMSO and serially diluted in a 96-well plate in tryptic soy broth (TSB) with eleven concentrations ranging from 400 µg/mL to 0.4 µg/mL with a final volume of 100 µL. Subsequently, 100 µL of a diluted suspension of bacterial cells with an optical density of 0.125 measured at 600 nm in TSB (inoculum of approximately 10^5 CFU/mL) was added to each well and incubated at 37 °C for 24 h. After the incubation period, each well was analyzed for the presence or absence of visual growth of bacterial cells. The lowest concentration of the test compound at which no visible growth occurred was determined as the MIC values. After incubation, 10 µL of the bacterial suspension from each well that presented antibacterial activity was added to divided TSA plates and incubated at 37 °C overnight.

H1299 = assay: Antiproliferative MTT assay, H1299 lung cancer cells; type: cell-based, human
Procedure: (§4) The antiproliferative activities of the cinnamyl and benzodioxyl derivatives were assessed against six human cell lines of three different types of cancer (colon, lung, and breast) using the 3-(4,5-dimethylthiazol-2-yl)-2,5-diphenyltetrazolium bromide (MTT) assay at seven concentrations for 48 h. The results are expressed as the IC50 values and are outlined in Table 1.
(§5) The cell lines were obtained from the American Type Culture Collection (ATCC). All the cancer cell lines (HT-29, HCT-116, H1299, HTB-54, MDA-MB-231 and MCF-7) and the nontumorigenic cells (184B5) were maintained in RPMI 1640 medium (Gibco), supplemented with 10% fetal bovine serum (FBS; Gibco) and 1% antibiotics (10.00 units/mL penicillin and 10.00 mg/mL streptomycin; Gibco). Cells were preserved in tissue culture flasks at 37 °C and 5% CO2. Culture medium was replaced every three days.
(§6) The cytotoxic effect of each compound was initially tested at seven different concentrations ranging between 0.5 and 100 µM in the cell lines mentioned above. The cells were seeded (1 × 10^4 cells per well) in 96-well plates and incubated at 37 °C and 5% CO2 for 24 h. After attachment, cells were treated with either dimethyl sulfoxide (DMSO) or increasing concentrations of the corresponding selenocompound for 48 h. The effect of the compounds on cell viability was determined by the MTT assay. In brief, 20 µL of MTT (5 mg/mL) was added to each well 2.5 h prior to experiment termination. At the end of the incubation, the medium was removed, and the formazan crystals were dissolved in 50 µL of DMSO. Absorbance was measured at 550 nm on a microplate reader. IC50 values were calculated using OriginPro 8.5.1. software by nonlinear curve fitting. Selectivity indexes were calculated as the ratio of the IC50 values determined for the nonmalignant and the tumoral cells in the breast cell lines (IC50 (184B5)/IC50 (MDA-MB-231) and IC50 (184B5)/IC50 (MCF-7)). Data were obtained from at least three independent experiments performed in triplicates.

[1] = test system: Leishmania infantum promastigotes; assay: Parasite viability MTT assay, L. infantum promastigotes; type: cell-based; settings: 48 h
Procedure: The cytotoxic activities of all the derivatives against Leishmania major and Leishmania infantum promastigotes were studied by the MTT assay after exposing the parasites to five different concentrations of each compound for 48 h. Miltefosine and paromomycin, two currently available drugs for the treatment of leishmaniasis, were used as positive controls.
L. major (clone VI, MHOM/IL/80/Friendlin) and L. infantum (BCN-150) promastigotes were grown in continuous stirred M199 1X medium (Sigma, St Louis, MO, USA) at 26 °C supplemented with 25 mM HEPES (pH 7.2), 10% heat-inactivated FBS (Gibco, Gaithersburg, MD, USA), 0.1 mM adenine, 0.0005% (w/v) hemin, 0.0001% (w/v) biotin, 100 UI/mL penicillin and […] streptomycin (Gibco, Gaithersburg, MD, USA). Media were changed before each experiment to achieve exponential growth.
The antileishmanial activity was assessed by the MTT assay as previously described. Briefly, 3 × 10^6 promastigotes of both Leishmania strains were placed into a 96-well plate with supplemented M199 1X medium during their logarithmic growth phase. The parasites were treated with five increasing concentrations of the compounds ranging between 0.1 and 1000 µM at 26 °C for 48 h. At the termination point, 20 µL of MTT (5 mg/mL) was added and further incubated for 4 h. The resultant formazan crystals formed were dissolved in 80 µL of DMSO and the absorbance was measured at 550 nm on a microplate reader. IC50 values were calculated using OriginPro 8.5.1. software by nonlinear curve fitting. Miltefosine and paromomycin were used as reference drugs. Data were obtained from at least three independent experiments performed in triplicates.

HT-29 = assay: Antiproliferative MTT assay, HT-29 colon cancer cells; type: cell-based, human
Procedure: as §4, §5, §6

S. faecalis = assay: MIC and MBC assay, S. faecalis; type: cell-based, Streptococcus faecalis; settings: for MIC / MBC: Enterococcus faecalis; for MIC: read-out: MIC S. faecalis; for MBC: read-out: MBC S. faecalis
Procedure: as §1, §2, §3

S. epidermidis = assay: MIC and MBC assay, S. epidermidis; type: cell-based, Staphylococcus epidermidis; settings: for MIC / MBC: Staphylococcus epidermidis; for MIC: read-out: MIC S. epidermidis; for MBC: read-out: MBC S. epidermidis
Procedure: as §1, §2, §3

HTB-54 = assay: Antiproliferative MTT assay, HTB-54 lung cancer cells; type: cell-based, human
Procedure: as §4, §5, §6

[2] = Homo sapiens, NCI-H1299, 48 h, MTT assay, 48 h, mean ± SD, read-out: IC50 H1299
[3] = MTT assay, 48 h, mean ± SD, read-out: IC50 H1299
[4] = Leishmania infantum, promastigotes, MTT assay, mean ± SD, read-out: IC50 Leishmania infantum
[5] = promastigotes, MTT assay, mean ± SD, read-out: IC50 Leishmania infantum
[6] = Homo sapiens, HT-29, 48 h, MTT assay, 48 h, mean ± SD, read-out: IC50 HT-29
[7] = MTT assay, 48 h, mean ± SD, read-out: IC50 HT-29
[8] = Homo sapiens, HTB-54, MTT assay, 48 h, mean ± SD, read-out: IC50 HTB-54
[9] = MTT assay, 48 h, mean ± SD, read-out: IC50 HTB-54

SMILES	MIC (K. pneumoniae; Gram-negative, 24 h at 37 °C) [µg/mL]	IC50 (H1299; [2]) [µM]	IC50 (H1299; [3]) [µM]	IC50 [1, 4] [µM]	IC50 [1, 5] [µM]	IC50 (HT-29; [6]) [µM]	IC50 (HT-29; [7]) [µM]	MIC (S. faecalis; Gram-positive, 24 h at 37 °C) [µg/mL]	MBC S. faecalis (S. faecalis; Gram-positive)	MIC S. faecalis (S. faecalis; Gram-positive, 24 h at 37 °C) [µg/mL]	MIC S. epidermidis (S. epidermidis; Gram-positive, 24 h at 37 °C) [µg/mL]	MIC (S. epidermidis; Gram-positive, 24 h at 37 °C) [µg/mL]	IC50 (HTB-54; [8]) [µM]	MIC K. pneumoniae (K. pneumoniae; Gram-negative, 24 h at 37 °C) [µg/mL]	IC50 (HTB-54; [9]) [µM]	other results
N#C[Se]Cc1ccc2c(c1)OCO2 [Compound 2a, 5-(Selenocyanatomethyl)benzo[d][1,3]dioxole]	50 (≈ 208 µM)	< 12	11.9 ± 3.7	< 5	3.7 ± 0.1	< 12	11.9 ± 3.4	25 (≈ 104 µM)	no bactericidal effect was observed	≤ 25	≤ 25	12.5 (≈ 52.1 µM)	45.2 ± 8.2			MBC (K. pneumoniae; Gram-negative): 50 µg/mL (≈ 208 µM); MBC (S. faecalis; Gram-positive): > 200 µg/mL; MBC (S. epidermidis; Gram-positive): 12.5 µg/mL (≈ 52.1 µM)
C(=C\c1ccccc1)/C[Se][Se]C/C=C/c1ccccc1 [Compound 1b, 1,2-Dicinnamyldiselenide]	> 200	< 40	28.7 ± 2.6	39.4 ± 5.1		< 40	36 ± 5.4	> 200				> 200	50.1 ± 5.9			
N#C[Se]C/C=C/c1ccccc1 [Compound 1a, (E)-(3-selenocyanatoprop-1-en-1-yl)benzene]									no bactericidal effect was observed							MIC (K. pneumoniae; 24 h): 100 µg/mL (≈ 450 µM); MBC (K. pneumoniae): 100 µg/mL (≈ 450 µM); IC50 (H1299; Homo sapiens, NCI-H1299, 48 h, read-out: IC50 H1299, MTT assay, 48 h, mean ± SD): > 50 µM; IC50 (H1299; read-out: IC50 H1299, MTT assay, 48 h, mean ± SD): 82.5 ± 5.9 µM; IC50 ([1]; Leishmania infantum, read-out: IC50 Leishmania infantum, promastigotes, MTT assay, 48 h, mean ± SD): < 5 µM; IC50 ([1]; read-out: IC50 Leishmania infantum, promastigotes, MTT assay, mean ± SD): 3.3 ± 1.8 µM; IC50 (HT-29; Homo sapiens, HT-29, 48 h, read-out: IC50 HT-29, MTT assay, 48 h, mean ± SD): > 50 µM; IC50 (HT-29; read-out: IC50 HT-29, MTT assay, 48 h, mean ± SD): 61.2 ± 9.7 µM; MIC (S. faecalis; 24 h): 50 µg/mL (≈ 225 µM); MBC (S. faecalis): > 200 µg/mL; MIC (S. epidermidis; 24 h): 12.5 µg/mL (≈ 56.3 µM); MBC (S. epidermidis): 12.5 µg/mL (≈ 56.3 µM); IC50 (HTB-54; Homo sapiens, HTB-54, 48 h, read-out: IC50 HTB-54, MTT assay, 48 h, mean ± SD): > 50 µM; IC50 (HTB-54; read-out: IC50 HTB-54, MTT assay, 48 h, mean ± SD): 58.7 ± 9 µM
O=C(CC[Se]CC=Cc1ccccc1)[c-]1cccc1.[Fe+2].c1cc[cH-]c1 [Compound 1c, 3-(Cinnamylselanyl)-1-ferrocenylpropan-1-one]			70.6 ± 6.6		23.2 ± 10.7		> 100			>200	>200			>200	32.3 ± 3.2	
O=C(CC[Se]Cc1ccc2c(c1)OCO2)[c-]1cccc1.[Fe+2].c1cc[cH-]c1 [Compound 2c, 3-((Benzo[d][1,3]dioxol-5-ylmethyl)selanyl)-1-ferrocenylpropan-1-one]			45.2 ± 7.2		7.2 ± 3.6		21.4 ± 4.3			>200	>200			>200	29.7 ± 2.9	
